Test results reported in patent publication US20120028917A1, “Use Of N-(4-((3-(2-Amino-4-Pyrimidinyl)-2-Pyridinyl)Oxy)Phenyl)-4-(4-Methyl-2-Thienyl)-1-Phthalazinamine In The Treatment Of Antimitotic Agent Resistant Cancer” (Amgen Inc., priority 2009, published 2012).

How the values were obtained:
[1] = test system: MES-SA Dx5 xenograft; experiment: Xenograft tumor growth inhibition (Example 3); format: in vivo, athymic nude mice
Protocol: To investigate whether AMG 900-induced suppression of aurora kinase activity inhibits cell proliferation, the antiproliferative efficacy of AMG 900 was evaluated in-vivo in multiple human cancer xenograft models, including breast, colon, leukemia, lung, pancreatic, and uterine cancer models, grown in athymic nude mice. Mice were administered AMG 900 orally at 3.75, 7.5, or 15 mg/kg BID for 2 consecutive days per week or 3 mg/kg BID everyday for the duration of the study beginning when tumors were established. The reagents, solutions, equipment, formulation of AMG 900, tumor volume measurements and calculations were generally as described in Example 4 below.
The effect of AMG 900 was tested on the multidrug resistant cell line MES-SA Dx5 grown in vivo as a tumor xenograft. Mice were administered AMG 900 orally at 15 mg/kg BID for 2 consecutive days per week or 3.0 mg/kg BID everyday for the duration of the study. Dosing was initiated when tumors were established (10 days after tumor implantation).
MES-SA Dx5, multi-drug resistant, cells (2×10^6) were injected subcutaneously in the right flank of female athymic nude mice. Tumors were measured twice per week. Treatment began on day 10 when the tumors were ˜100 mm^3. […] P-values correspond to statistical difference between groups treated with vehicle and AMG 900 determined by RMANOVA followed by Dunnett's post-hoc test. […]

[2] = test system: HCT116 parental; experiment: ≧4N DNA content assay (FIG. 6-A); format: cell-based; conditions: Homo sapiens, HCT-116, 24 hours, read-out: cellular ≧4N DNA content EC50
Protocol: Tumor cells were treated with AMG 900, AZD1152, MK-0457, or PHA-739358 (range concentration varied based on potency) for 24 hours and processed for cell-cycle analysis (DNA staining only) as previously described (1). Cells were analyzed on a LSRII flow cytometer using BD FACS Diva software. The concentration-response curves and corresponding EC50 values were calculated using the percentage of cells with ≧4N DNA content versus the DMSO control.
HCT116 cell lines were treated with increasing concentrations of AMG 900 or AZD1152 for 24 hours. Flow cytometry was used to assess the accumulation of cells with ≧4N DNA content expressed as a percentage of the DMSO-treated control (POC). The concentration-response curves and calculated EC50 values were determined from two independent experiments (bars, ±SD).

[3] = test system: Jurkat; experiment: Multiparameter cell cycle DNA content assay (flow cytometry); format: cell-based; conditions: Homo sapiens, T cell leukemia, 48 hours without compound withdrawal, read-out: EC50 (+4N DNA content endpoint)
Protocol: (§1) Tumor cells were seeded in a 300 μL deep 96-well plate in 150 μL of appropriate complete media at a density of 100,000 cells/well. The cells were treated with AMG 900 (10-point dose range 0.156 to 0.0003 μM) with a final DMSO concentration of 0.2% in media. Two hours prior to harvest time, the cells were pulsed with BrdU at the final concentration of 1:100 in media. After 48 hours, 100 μL of media was removed from each well with a multi-well pipetter. Then the cells were transferred to PCR tube strips in 200 μL of media. The cells were centrifuged at 2000 rpm at 18° C. for 4 minutes and the supernatant was aspirated. The cells were then fixed in 200 μL of ice cold 90% methanol and stored at −20° C. for at least 24 hours before antibody and DNA staining. Fixed cells were centrifuged at 2000 rpm for 4 minutes to remove 90% methanol. Cells were washed with 200 μL of wash buffer and then treated with 100 μL acid buffer at room temperature for 1 hour in the dark. Cells were washed twice with 200 μL wash buffer (until pH was 7.0, confirmed with pH paper). Cells were incubated with an anti-BrdU-Alexa 647 (3 μg/mL) and anti-Caspase 3-FITC (20 μ/well) antibody cocktail in wash buffer for 2 hours at room temperature in the dark. Stained cells were centrifuged and washed with 200 μL of wash buffer. Cells were counterstained with 200 μL of propidium iodide (PI) overnight at 4° C. in the dark. Data was acquired and analyzed by flow cytometer (LSRII). A threshold gate was applied according to DNA content, BrdU, and Caspase-3 positive/negative populations based on DMSO control and low/high drug-treated groups. The data was represented as a percentage of SubG1 DNA content, 4N+ DNA content, BrdU, and Caspase-3 cleavage positive populations. The concentration-response curves and EC50 values were calculated using a 4-parameter equation.

[4] = test system: K562; experiment: as above; format: cell-based; conditions: Homo sapiens; K562, Chronic myeloid leukemia; 48 hours without compound withdrawal; read-out: EC50 (+4N DNA content endpoint)
Protocol: as §1

[5] = test system: RPMI-8226; experiment: as above; format: cell-based; conditions: Homo sapiens; RPMI-8226, Multiple Myeloma; 48 hours without compound withdrawal; read-out: EC50 (+4N DNA content endpoint)
Protocol: as §1

[6] = test system: HL-60; experiment: as above; format: cell-based; conditions: Homo sapiens; HL-60, Promyelocytic leukemia; 48 hours without compound withdrawal; read-out: EC50 (+4N DNA content endpoint)
Protocol: as §1

[7] = test system: U266-B1; experiment: as above; format: cell-based; conditions: Homo sapiens; U266-B1, Multiple Myeloma; 48 hours without compound withdrawal; read-out: EC50 (+4N DNA content endpoint)
Protocol: as §1

[8] = test system: MOLT-4; experiment: as above; format: cell-based; conditions: Homo sapiens; MOLT-4, T cell leukemia; 48 hours without compound withdrawal; read-out: EC50 (+4N DNA content endpoint)
Protocol: as §1

EC50 [3]: 1 nM | EC50 [4]: 1 nM | EC50 [5]: 2 nM | EC50 [6]: 2 nM | EC50 [7]: 2 nM | EC50 [8]: 2 nM
Structure (SMILES): Cc1csc(-c2nnc(Nc3ccc(Oc4ncccc4-c4ccnc(N)n4)cc3)c3ccccc23)c1 [AMG 900, N-(4-((3-(2-amino-4-pyrimidinyl)-2-pyridinyl)oxy)phenyl)-4-(4-methyl-2-thienyl)-1-phthalazinamine]
% TGI (tumor growth inhibition) ([1]; MES-SA Dx5, Uterine, oral BID, best of intermittent or continuous dose schedule): 73% | tumor growth vs vehicle control ([1]; MES-SA Dx5, 15 mg/kg BID 2 consecutive days per week and 3.0 mg/kg BID everyday, p<0.0001): statistically significant tumor growth inhibition | EC50 [2]: 2 nM
